Columns and labels:
[1] = target: T1, Alpha-1A adrenergic receptor (Homo sapiens, UniProt P35348)
T1 sequence (P35348 whole entry): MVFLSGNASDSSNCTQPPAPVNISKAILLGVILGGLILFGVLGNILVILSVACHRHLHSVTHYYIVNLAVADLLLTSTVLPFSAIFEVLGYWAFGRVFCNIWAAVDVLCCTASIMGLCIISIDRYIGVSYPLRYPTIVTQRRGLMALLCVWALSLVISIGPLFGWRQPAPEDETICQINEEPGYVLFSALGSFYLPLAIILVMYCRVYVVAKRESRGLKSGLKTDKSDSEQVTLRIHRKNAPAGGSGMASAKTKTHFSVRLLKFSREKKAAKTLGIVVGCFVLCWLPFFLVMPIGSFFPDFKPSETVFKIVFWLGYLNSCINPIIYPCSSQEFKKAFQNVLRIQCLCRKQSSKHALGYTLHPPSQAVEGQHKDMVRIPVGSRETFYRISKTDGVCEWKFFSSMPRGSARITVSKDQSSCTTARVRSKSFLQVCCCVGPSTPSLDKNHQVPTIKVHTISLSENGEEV

Cannabinoid receptor 1 [2] = target: T2, Cannabinoid receptor 1 (Homo sapiens, UniProt P21554); format: functional, cell-based
Cannabinoid receptor 1 [3] = target: T2, Cannabinoid receptor 1; format: functional, cell-based; remark: listed apart in the source
Cannabinoid receptor 1 [4] = target: T2, Cannabinoid receptor 1
Estrogen receptor = target: T3, Estrogen receptor (Homo sapiens, UniProt P03372)
T3 sequence (P03372 whole entry): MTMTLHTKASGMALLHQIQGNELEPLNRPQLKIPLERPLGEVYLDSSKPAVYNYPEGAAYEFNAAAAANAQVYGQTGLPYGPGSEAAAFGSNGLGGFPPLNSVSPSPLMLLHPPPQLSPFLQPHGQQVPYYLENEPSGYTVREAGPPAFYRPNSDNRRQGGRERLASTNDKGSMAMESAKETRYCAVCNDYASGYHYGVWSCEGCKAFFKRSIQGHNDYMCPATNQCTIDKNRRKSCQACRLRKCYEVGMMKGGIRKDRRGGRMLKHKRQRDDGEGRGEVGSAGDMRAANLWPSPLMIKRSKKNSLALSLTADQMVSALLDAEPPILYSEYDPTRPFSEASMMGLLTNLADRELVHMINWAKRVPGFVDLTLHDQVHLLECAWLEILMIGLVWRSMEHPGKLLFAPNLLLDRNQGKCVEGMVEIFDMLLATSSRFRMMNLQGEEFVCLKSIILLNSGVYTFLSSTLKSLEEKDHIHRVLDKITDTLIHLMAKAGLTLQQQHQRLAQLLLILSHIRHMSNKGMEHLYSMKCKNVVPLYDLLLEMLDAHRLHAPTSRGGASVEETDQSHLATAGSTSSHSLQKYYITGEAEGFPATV

[5] = target: T4, 5-hydroxytryptamine receptor 1A (Homo sapiens, UniProt P08908); format: functional, cell-based
T4 sequence (P08908 whole entry): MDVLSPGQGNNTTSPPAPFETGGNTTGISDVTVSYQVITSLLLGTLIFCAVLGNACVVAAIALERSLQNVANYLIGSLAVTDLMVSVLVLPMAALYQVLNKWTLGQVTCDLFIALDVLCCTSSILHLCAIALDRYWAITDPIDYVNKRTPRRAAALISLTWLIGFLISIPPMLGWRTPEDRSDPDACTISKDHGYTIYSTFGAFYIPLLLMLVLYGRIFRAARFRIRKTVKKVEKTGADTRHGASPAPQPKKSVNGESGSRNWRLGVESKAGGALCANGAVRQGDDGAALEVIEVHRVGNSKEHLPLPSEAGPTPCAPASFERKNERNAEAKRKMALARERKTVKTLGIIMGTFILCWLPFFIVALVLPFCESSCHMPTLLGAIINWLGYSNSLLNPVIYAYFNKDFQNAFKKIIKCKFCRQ

Melanocortin receptor 4 = Melanocortin receptor 4 (Homo sapiens, UniProt P32245)
Mu-type opioid receptor = Mu-type opioid receptor (Homo sapiens, UniProt P35372); test: biochemical; format: functional
[6] = target: T1, Alpha-1A adrenergic receptor; format: functional, cell-based
[7] = target: T5, Alpha-2B adrenergic receptor (Homo sapiens, UniProt P18089)
T5 sequence (P18089 whole entry): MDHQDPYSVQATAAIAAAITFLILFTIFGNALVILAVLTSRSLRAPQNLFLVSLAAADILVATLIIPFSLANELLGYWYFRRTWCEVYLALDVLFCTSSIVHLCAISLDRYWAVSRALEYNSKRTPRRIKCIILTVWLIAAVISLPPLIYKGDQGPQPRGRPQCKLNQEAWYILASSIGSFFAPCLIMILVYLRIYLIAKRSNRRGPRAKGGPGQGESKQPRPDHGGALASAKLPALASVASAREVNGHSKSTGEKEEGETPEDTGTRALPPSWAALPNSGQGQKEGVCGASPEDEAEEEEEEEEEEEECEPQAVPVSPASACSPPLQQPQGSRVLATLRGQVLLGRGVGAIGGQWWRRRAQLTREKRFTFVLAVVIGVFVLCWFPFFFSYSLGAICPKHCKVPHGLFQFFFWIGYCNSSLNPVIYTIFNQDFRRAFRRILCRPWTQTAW

[8] = target: T6, Muscarinic acetylcholine receptor M1 (Homo sapiens, UniProt P11229); format: functional
T6 sequence (P11229 whole entry): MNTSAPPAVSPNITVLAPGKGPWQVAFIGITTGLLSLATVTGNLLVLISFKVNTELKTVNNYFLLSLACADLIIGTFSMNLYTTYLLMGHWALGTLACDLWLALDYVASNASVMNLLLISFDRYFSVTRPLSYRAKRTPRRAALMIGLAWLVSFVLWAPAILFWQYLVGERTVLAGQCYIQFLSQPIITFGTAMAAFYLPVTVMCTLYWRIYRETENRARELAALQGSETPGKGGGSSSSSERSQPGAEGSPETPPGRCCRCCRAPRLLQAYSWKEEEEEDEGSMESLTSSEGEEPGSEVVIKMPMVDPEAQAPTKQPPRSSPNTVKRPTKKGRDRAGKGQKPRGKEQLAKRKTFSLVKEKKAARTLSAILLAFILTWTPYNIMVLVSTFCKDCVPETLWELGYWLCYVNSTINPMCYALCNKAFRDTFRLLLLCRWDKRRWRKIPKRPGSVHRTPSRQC

Histamine H1 receptor = Histamine H1 receptor (Homo sapiens, UniProt P35367)
[9] = target: Beta-2 adrenergic receptor (Homo sapiens, UniProt P07550); format: functional, cell-based
Note: assay procedure not described here.

Melanocortin receptor 4, sequence (P32245 whole entry): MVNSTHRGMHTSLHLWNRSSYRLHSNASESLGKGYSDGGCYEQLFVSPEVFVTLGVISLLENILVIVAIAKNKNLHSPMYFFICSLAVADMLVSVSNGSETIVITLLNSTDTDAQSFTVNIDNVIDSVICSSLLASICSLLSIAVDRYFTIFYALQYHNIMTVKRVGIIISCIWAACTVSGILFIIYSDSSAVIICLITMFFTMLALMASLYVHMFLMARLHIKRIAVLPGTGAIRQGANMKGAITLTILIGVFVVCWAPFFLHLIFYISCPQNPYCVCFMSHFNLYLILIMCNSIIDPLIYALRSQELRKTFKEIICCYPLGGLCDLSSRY
Beta-2 adrenergic receptor, sequence (P07550 whole entry): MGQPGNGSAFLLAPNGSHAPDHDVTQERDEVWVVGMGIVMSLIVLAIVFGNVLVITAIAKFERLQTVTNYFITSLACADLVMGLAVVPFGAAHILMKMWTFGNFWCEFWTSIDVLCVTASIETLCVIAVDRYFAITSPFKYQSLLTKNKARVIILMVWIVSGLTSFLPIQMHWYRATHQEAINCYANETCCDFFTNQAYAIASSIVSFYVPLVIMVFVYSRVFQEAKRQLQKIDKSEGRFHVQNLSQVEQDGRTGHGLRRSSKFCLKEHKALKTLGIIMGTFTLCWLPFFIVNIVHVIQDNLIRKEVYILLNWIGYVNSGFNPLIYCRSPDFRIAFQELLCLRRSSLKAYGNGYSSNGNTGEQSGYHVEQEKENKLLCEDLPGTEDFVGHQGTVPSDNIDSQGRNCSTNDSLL
Histamine H1 receptor, sequence (P35367 whole entry): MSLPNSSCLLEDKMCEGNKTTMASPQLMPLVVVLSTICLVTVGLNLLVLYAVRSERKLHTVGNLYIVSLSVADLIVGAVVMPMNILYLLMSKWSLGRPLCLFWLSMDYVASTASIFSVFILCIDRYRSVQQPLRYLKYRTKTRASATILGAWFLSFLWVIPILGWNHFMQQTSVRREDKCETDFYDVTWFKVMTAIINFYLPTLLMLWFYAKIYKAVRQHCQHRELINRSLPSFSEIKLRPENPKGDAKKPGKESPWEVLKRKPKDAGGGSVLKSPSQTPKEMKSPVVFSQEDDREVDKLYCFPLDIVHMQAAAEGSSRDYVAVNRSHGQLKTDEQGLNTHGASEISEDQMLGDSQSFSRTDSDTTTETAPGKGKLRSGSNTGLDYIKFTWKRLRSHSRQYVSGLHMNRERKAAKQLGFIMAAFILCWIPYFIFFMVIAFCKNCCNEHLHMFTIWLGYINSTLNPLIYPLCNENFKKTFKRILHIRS
T2 sequence (P21554 whole entry): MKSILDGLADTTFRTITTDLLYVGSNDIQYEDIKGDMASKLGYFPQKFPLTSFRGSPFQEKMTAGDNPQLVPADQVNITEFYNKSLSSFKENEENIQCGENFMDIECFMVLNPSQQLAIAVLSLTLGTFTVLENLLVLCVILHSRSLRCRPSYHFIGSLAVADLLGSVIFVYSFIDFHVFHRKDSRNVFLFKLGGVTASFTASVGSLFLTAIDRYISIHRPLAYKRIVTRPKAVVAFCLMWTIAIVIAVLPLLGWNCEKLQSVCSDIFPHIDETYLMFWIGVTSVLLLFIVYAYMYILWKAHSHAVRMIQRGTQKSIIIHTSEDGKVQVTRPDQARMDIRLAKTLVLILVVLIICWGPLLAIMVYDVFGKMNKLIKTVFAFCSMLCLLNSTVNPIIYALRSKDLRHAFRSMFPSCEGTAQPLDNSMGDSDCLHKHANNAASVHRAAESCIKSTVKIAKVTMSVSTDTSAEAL
Mu-type opioid receptor, sequence (P35372 whole entry): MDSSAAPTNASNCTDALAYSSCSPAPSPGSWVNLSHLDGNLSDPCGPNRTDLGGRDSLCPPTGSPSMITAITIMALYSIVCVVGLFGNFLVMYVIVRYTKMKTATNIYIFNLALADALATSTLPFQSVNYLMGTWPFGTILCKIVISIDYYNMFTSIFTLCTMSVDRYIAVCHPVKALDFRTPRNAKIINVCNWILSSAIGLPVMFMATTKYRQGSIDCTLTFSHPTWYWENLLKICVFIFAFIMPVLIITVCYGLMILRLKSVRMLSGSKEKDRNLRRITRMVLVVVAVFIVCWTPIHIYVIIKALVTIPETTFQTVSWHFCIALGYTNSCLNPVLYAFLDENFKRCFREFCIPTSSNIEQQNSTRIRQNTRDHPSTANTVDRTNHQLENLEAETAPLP

| Compound | AC50 [1] | AC50 (Cannabinoid receptor 1 [2]) | AC50 (Cannabinoid receptor 1 [3]) | AC50 (Cannabinoid receptor 1 [4]) | AC50 (Estrogen receptor) | AC50 [5] | AC50 (Melanocortin receptor 4) | AC50 (Mu-type opioid receptor) | AC50 [6] | AC50 [7] | AC50 [8] | AC50 (Histamine H1 receptor) | AC50 [9] |
| --- | --- | --- | --- | --- | --- | --- | --- | --- | --- | --- | --- | --- | --- |
| NNC(=O)c1ccncc1 [ISONIAZID] | > 10 µM | > 30 µM | > 30 µM | > 30 µM | > 30 µM | > 10 µM | > 30 µM | > 30 µM | > 30 µM |  |  |  |  |
| CCCC(C)(COC(N)=O)COC(N)=O [MEPROBAMATE] | > 30 µM |  |  | > 10 µM |  | > 10 µM | > 10 µM | > 30 µM |  | > 10 µM | > 30 µM | > 10 µM |  |
| COc1ccc2cc(CCC(C)=O)ccc2c1 [NABUMETONE] | > 30 µM |  |  | > 10 µM |  | > 10 µM | > 10 µM | > 30 µM | > 30 µM |  |  |  |  |
| O=C(c1cc(Cc2n[nH]c(=O)c3ccccc23)ccc1F)N1CCN(C(=O)C2CC2)CC1 [OLAPARIB] | > 10 µM |  |  | > 10 µM | > 30 µM |  | > 30 µM |  |  | > 10 µM | > 10 µM | > 10 µM |  |
| C[C@]12C/C(=C/O)C(=O)C[C@@H]1CC[C@@H]1[C@@H]2CC[C@@]2(C)[C@H]1CC[C@]2(C)O [OXYMETHOLONE] |  | > 30 µM | > 30 µM |  | > 30 µM |  |  | > 30 µM | > 30 µM |  |  |  | > 30 µM |
| NC(=O)NC(=O)Cc1ccccc1 [PHENACEMIDE] | > 10 µM |  |  | > 10 µM | > 10 µM | > 10 µM | > 10 µM |  |  |  |  |  |  |
| c1ccc(C2(N3CCCCC3)CCCCC2)cc1 [PHENCYCLIDINE] |  | > 30 µM | > 30 µM |  |  | > 30 µM |  | > 30 µM | > 30 µM |  | > 30 µM | > 30 µM | > 30 µM |
| CC1=C(/C=C/C(C)=C/C=C/C(C)=C/CO)C(C)(C)CCC1 [RETINOL] | > 10 µM |  |  | > 10 µM | > 30 µM | > 10 µM | > 10 µM | > 30 µM |  | > 30 µM | > 10 µM | > 10 µM |  |
| Cc1cc(C)nc(NS(=O)(=O)c2ccc(N)cc2)n1 [SULFAMETHAZINE] | > 30 µM |  |  | > 10 µM |  | > 10 µM | > 10 µM | > 30 µM |  |  |  |  |  |
| CCOC(=O)[C@@H](N)Cc1ccc(-c2cc(O[C@H](c3ccc(Cl)cc3-n3ccc(C)n3)C(F)(F)F)nc(N)n2)cc1 [TELOTRISTAT ETHYL] |  | > 30 µM |  |  |  |  |  |  | > 30 µM | 29 µM | > 30 µM | > 30 µM | > 30 µM |
| CC(c1cc2ccccc2s1)N(O)C(N)=O (stereo unspecified) [ZILEUTON] | > 10 µM | > 30 µM | > 30 µM | > 10 µM | > 30 µM |  | > 10 µM |  | > 30 µM |  |  |  |  |
